Measurements published in patent publication US20190322643A1 (Georgia State University Research Foundation, Inc., priority 2016, published 2019).

Experiments:
HDAC [1] = assay: Cell based homogenous HDAC assay, K562; settings: read-out: IC50-HDAC K562; K562 cells, mean ± SD of triplicate
Procedure: (§3) After 24 h, 9 μl inhibitors with different concentration were added to the HeLa cells and incubation was continued for 3 h under cell culture conditions. After this treatment period, 10 μl of a 2 mM stock solution of the substrate Boc-K(Ac)-AMC was added into the 96 well plates with Hela cells and inhibitors. […] A549 and K562 cell lines used the same method, respectively. IC50s were calculated using GraphPad Prizm statistical package with sigmoidal variable slope dose response curve fit.
(§4) Boc-K(Ac)-AMC was used as a cell-permeable HDAC substrate, as after deacetylation it is cleaved by trypsin to release the florescent 7-amino-4-methylcoumarin (AMC).

G9a = target: T1, G9a (Homo sapiens, UniProt Q96KQ7); assay: H3K9Me2 cell immunofluorescence in-cell Western (ICW) assay; type: cell-based; settings: MDA-MB-231 cell line, 48 h
T1 construct: endogenous in cells; host or cells: MDA-MB-231
T1 sequence (Q96KQ7 1-1210): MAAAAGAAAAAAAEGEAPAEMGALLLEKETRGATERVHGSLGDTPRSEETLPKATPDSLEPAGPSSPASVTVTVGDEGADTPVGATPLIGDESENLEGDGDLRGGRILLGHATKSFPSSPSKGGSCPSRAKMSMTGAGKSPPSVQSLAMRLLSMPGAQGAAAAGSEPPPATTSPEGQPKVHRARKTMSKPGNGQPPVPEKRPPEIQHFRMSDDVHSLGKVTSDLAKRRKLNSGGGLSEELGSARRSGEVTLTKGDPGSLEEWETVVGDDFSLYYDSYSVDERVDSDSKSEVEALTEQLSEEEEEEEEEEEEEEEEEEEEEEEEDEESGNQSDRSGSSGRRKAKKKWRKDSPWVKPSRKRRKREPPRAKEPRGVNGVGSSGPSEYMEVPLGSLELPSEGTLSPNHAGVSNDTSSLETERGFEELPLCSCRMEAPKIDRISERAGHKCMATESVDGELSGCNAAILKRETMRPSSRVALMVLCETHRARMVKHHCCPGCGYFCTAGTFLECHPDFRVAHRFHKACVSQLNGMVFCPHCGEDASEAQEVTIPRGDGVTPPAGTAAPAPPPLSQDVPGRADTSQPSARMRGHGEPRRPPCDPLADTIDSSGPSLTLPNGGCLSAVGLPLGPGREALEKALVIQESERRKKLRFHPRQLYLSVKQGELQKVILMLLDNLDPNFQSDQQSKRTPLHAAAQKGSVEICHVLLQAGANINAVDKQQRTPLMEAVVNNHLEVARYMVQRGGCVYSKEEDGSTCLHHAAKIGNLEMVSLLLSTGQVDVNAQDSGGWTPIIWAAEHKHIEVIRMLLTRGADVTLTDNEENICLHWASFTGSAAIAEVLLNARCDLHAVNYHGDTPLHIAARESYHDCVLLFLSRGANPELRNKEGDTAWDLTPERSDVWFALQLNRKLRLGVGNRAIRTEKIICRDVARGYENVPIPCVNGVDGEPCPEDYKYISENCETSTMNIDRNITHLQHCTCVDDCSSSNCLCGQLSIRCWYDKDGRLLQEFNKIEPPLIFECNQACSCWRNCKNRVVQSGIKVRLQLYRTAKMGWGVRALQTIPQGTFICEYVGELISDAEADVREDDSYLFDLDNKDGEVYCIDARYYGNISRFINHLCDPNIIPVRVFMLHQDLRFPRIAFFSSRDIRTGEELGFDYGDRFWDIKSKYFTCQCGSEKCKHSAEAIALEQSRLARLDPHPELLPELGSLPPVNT
Procedure: After the incubation, the media was removed and 100 μl fixation and permeabilization solution (2% formaldehyde in PBS) for fixation was added for 30 min. And then use 200 μl 0.1% Triton X100 in PBS washing solution to wash (allow wash to shake on a plate shaker for 5 minutes). After five washes, cells were blocked for 1 h with 150 μl blocking buffer to each well (1% BSA in PBS) (allow blocking at RT with moderate shaking on a plate shaker). After 1 h, remove the blocking buffer from the blocking step and add primary antibody in blocking buffer to cover the bottom of each well. […] The plates were read on an Odyssey CLX (LiCor) scanner at both 800 nm (H3K9me2 signal) and 700 nm (cell tag 700 stain signal) channels. IC50s were calculated using GraphPad Prizm statistical package with sigmoidal variable slope dose response curve fit.

HDAC [2] = assay: Cell based homogenous HDAC assay, Hela; settings: read-out: IC50-HDAC Hela; Hela cells, mean ± SD of triplicate
Procedure: as §3, §4

HDAC [3] = assay: Cell based homogenous HDAC assay, A549; settings: read-out: IC50-HDAC A549; A549 cells, mean ± SD of triplicate
Procedure: as §3, §4

A549 = assay: Cytotoxicity / anti-proliferation assay (CCK-8), A549; type: cell-based; settings: Homo sapiens, 72 h, CCK-8 kit
Procedure: (§1) Then the cells were exposed to the different inhibitors with various concentrations for 72 h. […] EC50s were calculated using GraphPad Prizm statistical package with sigmoidal variable slope dose response curve fit.
(§2) Cell anti-proliferation assays were performed to determine the toxicity of these inhibitors. […] These compounds were further evaluated against the control cell line HEK293 to test their toxicity with a non-cancerous cell line.

HCT-8 = assay: Cytotoxicity / anti-proliferation assay (CCK-8), HCT-8; type: cell-based; settings: Homo sapiens, 72 h, CCK-8 kit
Procedure: as §1, §2

[4] = target: T2, Mouse histone methyltransferase G9a (969-1263) (Mus musculus, UniProt Q9Z148); assay: MALDI-TOF methylation study of G9a inhibition; type: biochemical; settings: inhibitors at 5 μM concentration for 30 min
T2 construct: The 6His-sumo mG9a (969-1263) protein was purified using the following procedure; 6His-sumo (cleaved yes); made in house; host or cells: Escherichia coli BL21 (DE3)
T2 sequence (Q9Z148 969-1263): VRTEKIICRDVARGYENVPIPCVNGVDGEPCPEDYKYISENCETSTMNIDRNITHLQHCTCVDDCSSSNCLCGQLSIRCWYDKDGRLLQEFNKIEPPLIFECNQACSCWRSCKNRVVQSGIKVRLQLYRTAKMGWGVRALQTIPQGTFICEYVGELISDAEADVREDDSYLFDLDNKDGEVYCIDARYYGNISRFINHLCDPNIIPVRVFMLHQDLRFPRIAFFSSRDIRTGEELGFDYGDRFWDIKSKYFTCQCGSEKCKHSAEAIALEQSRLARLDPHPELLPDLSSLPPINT
Procedure: Mouse histone methyltransferase G9a (969-1263) cDNA was amplified from the cDNA of BALB/c mouse thymus, and the fragment was sub-cloned into a vector with a 6His-sumo tag. […] The 6His-sumo mG9a (969-1263) protein was purified using the following procedure: harvested cell pellet was re-suspended in 20 mM Tris (pH 8.0), 500 mM NaCl, 0.1% β-mercaptoethanol, and 1 mM PMSF. Cells were lysed by sonicating for 15 seconds with 6 second intervals for a total time of 15 minutes on an ice bath. […] The 6His-sumo tag was cleaved from the column by adding Ubiquitin-like-specific protease 1 (ULP-1) at 4° C. for 12 hours. Wash buffer was then run through the Ni^+ column again and the elution buffer collected. Subsequently, advanced protein purification was done by HiTrap Q HP sequential Superdex 200 10/300 GL. Elute of every step was analyzed by SDS PAGE, stained by Coomassie brilliant blue (CBB). […] The reaction was incubated at room temperature for 30 min, and stopped by TFA. 1 μL of the sample was mixed with CHCA matrix and m/z peaks were obtained at reflection positive mode. The results of mass spectrum were analyzed using the Bruker flex analysis software and data processing was carried out as described below. MALDI-TOF based experiments were performed according to the protocol developed by Chang et al. (Nat. Struct. Mol. Biol. 2009, 16, 312-317). MALDI spectra were collected using Bruker flex control software and analyzed by flex analysis. After labelling each cluster peaks of H3K9Me0, H3K9Me1 and H3K9Me2 for all of the tested concentrations, area under the cluster (AUC) were extracted by using the same flex analysis software. % abundance of each peak was calculated by following formula: A=% Abundance of (H3K9Me0)=area of H3K9Me0/(area of H3K9Me0+area of H3K9Me1+area of H3K9Me2) B=% Abundance of (H3K9Me1)=area of H3K9Me1/(area of H3K9Me0+area of H3K9Me1+area of H3K9Me2) C=% Abundance of (H3K9Me2)=area of H3K9Me2/(area of H3K9Me0+area of H3K9Me1+area of H3K9Me2). This was repeated for each spectra (3 multiples for each samples). […] Finally % inhibition was found by subtracting % MA(i) from 100. […] A biochemical assay using MALDI-TOF was used to visualize the effects of the synthesized compounds on G9a enzymatic activity. […] Struct. Mol. Biol. 2009, 16, 312-317).

Row | IC50 (HDAC [1]) | IC50 (G9a) | IC50 (HDAC [2]) | IC50 (HDAC [3]) | inhibition at 5 µM [4] | SMILES | EC50 (A549) | EC50 (HCT-8)
1 | > 100 µM | 96.7 ± 1.68 µM | > 100 µM | > 100 µM | 27 ± 12.2% | COc1cc2nc(NCCNC(=O)CCCCCCC(=O)NO)nc(NC3CCN(C)CC3)c2cc1OC [Compound 4, N1-(2-((6,7-dimethoxy-4-((1-methylpiperidin-4-yl)amino)quinazolin-2-yl)amino)ethyl)-N8-hydroxyoctanediamide] | > 100 µM | > 100 µM
2 | > 100 µM | 74.2 ± 1.94 µM | > 100 µM | > 100 µM | 11.2 ± 3.68% | COc1cc2nc(NCCNC(=O)CCCCCCC(=O)NO)nc(NC3CCN(C(C)C)CC3)c2cc1OC [Compound 4a, N1-hydroxy-N8-(2-((4-((1-isopropylpiperidin-4-yl)amino)-6,7-dimethoxyquinazolin-2-yl)amino)ethyl)octanediamide] | > 100 µM | > 100 µM
3 | > 100 µM | > 100 µM | > 100 µM | > 100 µM | 65 ± 1.95% | COc1cc2nc(NCCNC(=O)CCCCCC(=O)NO)nc(NC3CCN(C)CC3)c2cc1OC [Compound 5, N1-(2-((6,7-dimethoxy-4-((1-methylpiperidin-4-yl)amino)quinazolin-2-yl)amino)ethyl)-N7-hydroxyheptanediamide] | > 100 µM | > 100 µM
4 |  | 46.8 ± 1.97 µM |  |  | 29.7 ± 23.3% | COc1ccc2c(NC3CCN(C)CC3)nc(NCCNC(=O)CCCCCC(=O)NO)nc2c1 [Compound 14a, N1-hydroxy-N7-(2-((7-methoxy-4-((1-methylpiperidin-4-yl)amino)quinazolin-2yl)amino)ethyl) heptanediamide] | > 100 µM | > 100 µM
5 |  | 72.1 ± 1.37 µM |  |  | 47.9 ± 12.9% | COc1ccc2c(NC3CCN(Cc4ccccc4)CC3)nc(NCCNC(=O)CCCCC(=O)NO)nc2c1 [Compound 15, N1-(2-((4-((1-benzylpiperidin-4-yl)amino)-7-methoxyquinazolin-2-yl)amino)ethyl)-N6-hydroxyadipamide] | > 100 µM | > 100 µM
6 |  | 47 ± 3.33 µM |  |  | 69.1 ± 24.5% | COc1ccc2c(NC3CCN(C)CC3)nc(NCCNC(=O)CCCCC(=O)NO)nc2c1 [Compound 15a, N1-hydroxy-N6-(2-((7-methoxy-4-((1-methylpiperidin-4-yl)amino)quinazolin-2-yl)amino)ethyl)adipamide] | > 100 µM | > 100 µM
7 |  | 90.3 ± 3.75 µM |  |  | 40.3 ± 13.8% | COc1ccc2c(NC3CCN(Cc4ccccc4)CC3)nc(NCCNC(=O)CCCC(=O)NO)nc2c1 [Compound 16, N1-(2-((4-((1-benzylpiperidin-4-yl)amino)-7-methoxyquinazolin-2-yl)amino)ethyl)-N5-hydroxyglutaramide] |  | 83.9 µM
8 |  | 45.7 ± 1.76 µM |  |  | 40.3 ± 13.8% | COc1ccc2c(NC3CCN(C)CC3)nc(NCCNC(=O)CCCC(=O)NO)nc2c1 [Compound 16a, N1-hydroxy-N5-(2-((7-methoxy-4-((1-methylpiperidin-4-yl)amino)quinazolin-2-yl)amino)ethyl)glutaramide] | > 100 µM | > 100 µM
9 |  | 99.6 ± 3.13 µM |  |  | 10.7 ± 25.9% | COc1cc2nc(N3CCCN(C)CC3)nc(NC3CCN(C(=O)CCCCCCC(=O)NO)CC3)c2cc1OC [Compound 19, 8-(4-((6,7-dimethoxy-2-(4-methyl-1,4-diazepan-1-yl)quinazolin-4-yl)amino)piperidin-1-yl)-N-hydroxy-8-oxooctanamide] | > 100 µM | > 100 µM
10 |  | 97.5 ± 2.78 µM |  |  | 14.6 ± 15.8% | COc1cc2nc(N3CCCN(C)CC3)nc(NC3CCN(C(=O)CCCCCC(=O)NO)CC3)c2cc1OC [Compound 20, 7-(4-((6,7-dimethoxy-2-(4-methyl-1,4-diazepan-1-yl)quinazolin-4-yl)amino)piperidin-1-yl)-N-hydroxy-7-oxoheptanamide] | > 100 µM | > 100 µM
11 |  |  |  |  | 22.8 ± 26.7% | COc1ccc2c(NCCNC(=O)CCCCCCC(=O)NO)nc(N3CCCN(C)CC3)nc2c1 [Compound 21, N1-hydroxy-N8-(2-((7-methoxy-2-(4-methyl-1,4-diazepan-1-yl)quinazolin-4 yl)amino)ethyl)octanediamide] | > 100 µM | > 100 µM
12 |  | 60.6 ± 3.66 µM |  |  | 40.3 ± 15.3% | COc1ccc2c(NCCNC(=O)CCCCCC(=O)NO)nc(N3CCCN(C)CC3)nc2c1 [Compound 22, N1-hydroxy-N7-(2-((7-methoxy-2-(4-methyl-1,4-diazepan-1-yl)quinazolin-4-yl)amino)ethyl)heptanediamide] | > 100 µM | > 100 µM
